According to US8653271B2 (priority 2006, dated 2014):
Values after ≈ are worked out from the molar mass of the structure shown.

Columns and labels:
[1] = human skin, values obtained from Kiptoo et al., cited from earlier work
[2] = Differential scanning calorimetry; assay type: physicochemical
[3] = Table 4; values obtained from Kiptoo et al.; cited from earlier work
physchem = assay type: physicochemical; conditions: thermodynamic from solid
Protocol: The solubilities of CB-NTXOL-BUPOH, hydroxybupropion, and 6-β-naltrexol were determined by adding excess quantity of drug to mineral oil or pre-warmed HEPES-buffered Hanks' salt solution pH 7.4 at 32° C. (skin surface temperature), with equilibration while shaking in a water bath at 60 rpm. Weighing 4 mg of each of the drugs and placing them in 1 ml of each of the respective solvents was enough to ensure that there was excess drug in solution. Samples were drawn into a pre-warmed glass syringe, filtered through a syringe filter (Mineral oil: Millex FG-13, Millipore, Billerica, Mass., USA, and buffer: nylon filter, Gelman, East Hills, N.Y., USA), and measured with respect to volume and diluted with an appropriate volume of acetonitrile or buffer. The drug from the buffer samples was immediately extracted by solid phase extraction as described above. Drugs in mineral oil were diluted with a hundred-fold volume of acetonitrile and extraction recoveries were >95% for all the drugs. The sampling procedure was done in triplicate, discarding the first 40% of the initial filtrate. […]. For buffer solubilities, samples were taken after 30 min of sonication (to minimize the hydrolysis of the codrug). No significant difference was found between 30 min sonication solubility measurements and equilibrium solubility measurements taken after 48 h for 6-β-naltrexol.

[4] = saturated solution in light mineral oil, human skin, 32° C., 48 h; codrug in 6-β-naltrexol equivalents
Protocol: Human skin harvested during abdominal reduction surgery was used for the diffusion studies. Skin sections were obtained by using a Padgett dermatome set to 250 μm; these sections were stored at −20° C. Stored skin samples were thawed to room temperature at the time of the experiment. A PermeGear flow-through (In-Line, Riegelsville, Pa., USA) diffusion cell system was used for the skin permeation studies. Skin surface temperature was maintained at 32° C. with a circulating water bath. Data was collected by using human skin from a single donor with three cells of 6-β-naltrexol and four cells CB-NTXOL-BUPOH. Because of normal human skin inter-subject permeation variability, the codrug was compared against 6-β-naltrexol permeation within each individual skin sample. These studies were repeated three times with skin from different human subject donors. The receiver solution was HEPES-buffered Hanks' balanced salt solution pH 7.4 set at a flow rate of 1.1 ml/h. […] A saturated solution of 6-β-naltrexol or CB-NTXOL-BUPOH in light mineral oil was applied to the skin in order to maintain a maximum and constant thermodynamic activity of the drug. Each cell was charged with 0.25 ml of the respective drug solution. […] All samples were immediately processed by solid phase extraction, evaporated under nitrogen, reconstituted, and analyzed for drug content by HPLC. The human tissue use was approved by the University of Kentucky Institutional Review Board.
Cumulative quantity of drug collected in the receiver compartment was plotted as a function of time. The flux value for a given experiment was obtained from the slope of the steady-state portion of the cumulative amount of drug permeated vs. time plot. Apparent permeability coefficient values were computed from Fick's First Law of diffusion:
Sink conditions were maintained in the receiver throughout the experiment, so ΔC was approximated by the drug concentration (solubility in this case) in the donor compartment.
The skin tissue was rinsed with filtered water and blotted with a paper towel. The tissue was tape-stripped twice to remove surface formulation. The area of skin with drug contact was cut out, chopped into tiny pieces, and placed in a pre-weighed vial. The vial was weighed to calculate the mass of the skin. Ten milliliters of acetonitrile was added to each vial, the vials vortexed, sonicated for 10 min, and placed in a shaker overnight. The following day, a 1 ml sample was obtained from the vials and placed in autosampler vials for analysis. […] Flux values and skin concentrations for each of the drugs were reported as mean±S.D and were statistically compared using a paired Student's t-test. Flux enhancement as well as drug disposition in the skin were considered significant at p<0.05.

[5] = Plasma hydrolysis of the carbonate codrug; assay type: in vitro ADME, guinea pig; conditions: guinea pig plasma in vitro at 37° C.
Protocol: Guinea pig plasma, which was stored at −20° C., was thawed to room temperature. Known and sub-saturated amounts of the codrug (50 nmol) were added to approximately 2.0 ml of the guinea pig plasma and vortexed. Two-hundred μl aliquots of the spiked plasma were distributed into sealed vials, and incubated at 37° C. Samples were withdrawn at predetermined time intervals; 0, 0.5, 1, 2, 4, 6, 9, 24, 30, and 48 h. 500 μl of ACN was added to each sample to precipitate plasma protein. Each sample was vortexed and centrifuged at 10,000×g for 15 min. The supernatant was separated and evaporated under nitrogen at room temperature, and the residue was reconstituted with ACN for high-pressure liquid chromatography (HPLC) analysis. A standard curve was prepared from drug-spiked plasma samples processed by the same method. The amounts of the codrug remaining or parent drugs released were plotted against time. These hydrolytic profiles were fit to previously developed mathematical models using nonlinear least-squares regression analysis ([…]®, Micromath Inc., Salt Lake City, Utah) as described by the equations below: […]

[6] = humans; cited from earlier work
[7] = assay type: physicochemical
Protocol: Equal amounts of the each of the codrug were distributed into labeled test-tubes (20 nmol in each tube). Care was taken to ensure that the entire codrug was dissolved and the solution remained clear. Hydrolysis of the carbonate codrug (˜20 nmol) was conducted in isotonic phosphate buffer pH 7.4 at 32° C. in a water-bath with continuous stirring. […] Samples were collected at predetermined time intervals and stored in the freezer at −20° C. until analyzed. All experiments were conducted in triplicate. An aliquot part (250 μL) of hydrolysis solutions was mixed with 750 μL of acetonitrile, vortexed for 30s, and analyzed by HPLC for the presence of codrug and the two corresponding parent drugs, as well as for the intermediate hydrolysis product, 23. […] A Brownlee C18 reversed-phase Spheri-5 μm column (220×4.6 mm) connected to a C18 reversed-phase guard column (15×3.2 mm) was utilized and detection of solutes was carried out at 215 nm. The mobile phase consisted of a mixture of acetonitrile: 0.1% trifluoroacetic acid adjusted to pH 3.0 with triethylamine (50:50, v/v). The mobile phase flow rate was 1.5 mL/min and 100 μL of hydrolysis sample was injected onto the column.

CC1NC(C)(C)COC1(O)c1cccc(Cl)c1 (racemic) [Compound 4, (+/−)-2-(3-chlorophenyl)-3,5,5-trimethyl-2-morpholinol]
In vitro flux ([1]; codrug as NTXOL equivalent flux): 25.89 ± 6.01 nmol cm^−2 h^−1 | In vitro lag time [1]: 7.83 ± 1.73 h | Mean activity of solid @ T = 25° C., a2 ([2]; calculated from melting point and heat of fusion): 0.34 | Heat of fusion, ΔHf ([2]; ±s.d., n = 3): 2.58 ± 0.012 kcal/mol | Light mineral oil solubility [3]: 4.04 ± 0.04 mM | solubility at 30 min (physchem; aqueous buffer, pH 7.4, 32° C., 30 min sonication, read-out: Hanks' buffer solubility): 3.85 mM (≈ 985 µg/mL) | solubility at 48 h (physchem; oil or lipid, 32° C., 48 h equilibration (Table 3), read-out: Light mineral oil solubility): 4.04 mM (≈ 1030 µg/mL) | Flux from mineral oil [4]: 25.89 nmol cm^−2 h^−1 | Guinea pig plasma half-life [5]: stable

O=C1CC[C@@]2(O)[C@H]3Cc4ccc(O)c5c4[C@@]2(CCN3CC2CC2)[C@H]1O5 [Compound 1, Naltrexone]
oral bioavailability [6]: 5-40%

Cc1c(-c2cccc(Cl)c2)oc(=O)n1C(C)(C)COC(=O)Oc1ccc2c3c1OC1C(=O)CCC4(O)C(C2)N(CC2CC2)CCC314 (stereo not drawn) [Compound 25]
first-order rate constant k3 ([7]; generation of BUPOH from codrug 25, isotonic phosphate buffer pH 7.4): 0.0483 h⁻¹ | first-order rate constant k1 ([7]; hydrolysis at carbonate linker generating NTX (25) or NTXOL (26), isotonic phosphate buffer pH 7.4, 32° C.): 0.0179 h⁻¹
